Measured values as given in ChEMBL document CHEMBL6087386, “Radioprotective effectiveness of a novel delta-tocotrienol prodrug on mouse hematopoietic system against 60Co gamma-ray irradiation through inducing granulocyte-colony stimulating factor production” (Eur J Med Chem, 2024).
Active and inactive are the calls of the source. No cut-off for these calls is given here.

Tests used:
Mus musculus [1] = assay: Radioprotective activity in C57BL/6J mouse assessed as increase in percentage of LSK cells at 100 mg/kg, sc preincubated with compound for 24 hrs followed by total body irradiation with 6.5 Gy and measured after 30 days; format: functional, organism-based; conditions: time 31.0 day
[2] = Tmax in ICR mouse at 100 mg/kg, iv measured upto 24 hrs by LC-MS/MS analysis; format: ADME, organism-based; conditions: in vivo
[3] = Tmax in ICR mouse at 100 mg/kg, sc measured upto 24 hrs by LC-MS/MS analysis; format: ADME, organism-based; conditions: in vivo
Mus musculus [4] = assay: Radioprotective activity in C57BL/6J mouse assessed as increase in multipotent progenitor frequency in LSK compartment at 100 mg/kg, sc preincubated with compound for 24 hrs followed by total body irradiation with 6.5 Gy and measured after 30 days; format: functional, organism-based; conditions: time 31.0 day
[5] = Cmax in ICR mouse at 100 mg/kg, iv measured upto 24 hrs by LC-MS/MS analysis; format: ADME, organism-based; conditions: in vivo
Mus musculus [6] = assay: Radioprotective activity in C57BL/6J mouse assessed as effect on splenic LT-HSCs number at 100 mg/kg, sc preincubated with compound for 24 hrs followed by total body irradiation with 6.5 Gy and measured after 10 days; format: functional, organism-based; conditions: time 11.0 day
[7] = MRT (0 to infinity) in ICR mouse at 100 mg/kg, iv measured upto 24 hrs by LC-MS/MS analysis; format: ADME, organism-based; conditions: ICR, in vivo
Mus musculus [8] = assay: Radioprotective activity in C57BL/6J mouse assessed as increase in MPP number at 100 mg/kg, sc preincubated with compound for 24 hrs followed by total body irradiation with 6.5 Gy and measured after 30 days; format: functional, organism-based; conditions: time 31.0 day
Mus musculus [9] = assay: Radioprotective activity in C57BL/6J mouse assessed as increase in percentage of LK cells at 100 mg/kg, sc preincubated with compound for 24 hrs followed by total body irradiation with 6.5 Gy and measured after 30 days; format: functional, organism-based; conditions: time 31.0 day
[10] = MRT (0 to t) in ICR mouse at 100 mg/kg, iv measured upto 24 hrs by LC-MS/MS analysis; format: ADME, organism-based; conditions: in vivo
Mus musculus [11] = assay: Radioprotective activity in C57BL/6J mouse assessed as increase in neutrophils at 100 mg/kg, sc preincubated with compound for 24 hrs followed by total body irradiation with 6.5 Gy and measured after 30 days; format: functional, organism-based; conditions: time 31.0 day
[12] = Clearance in ICR mouse at 100 mg/kg, iv measured upto 24 hrs by LC-MS/MS analysis; format: ADME, organism-based; conditions: in vivo
[13] = Bioavailability in ICR mouse at 100 mg/kg, sc measured upto 24 hrs by LC-MS/MS analysis; format: ADME, organism-based; conditions: in vivo
Mus musculus [14] = assay: Radioprotective activity in C57BL/6J mouse assessed as increase in WBC count at 100 mg/kg, sc preincubated with compound for 24 hrs followed by total body irradiation with 6.5 Gy and measured after 30 days; format: functional, organism-based; conditions: time 31.0 day
Mus musculus [15] = assay: Induction of G-CSF production in C57BL/6J mouse model at 50 mg/kg, sc measured for 24 hrs by ELISA analysis; format: functional, organism-based
Mus musculus [16] = assay: Radioprotective activity in C57BL/6J mouse assessed as increase in platelets count at 100 mg/kg, sc preincubated with compound for 24 hrs followed by total body irradiation with 6.5 Gy and measured after 30 days; format: functional, organism-based; conditions: time 31.0 day
Mus musculus [17] = assay: Induction of G-CSF production in C57BL/6J mouse model at 100 to 200 mg/kg, sc measured for 24 hrs by ELISA analysis; format: functional, organism-based; conditions: dose 100-200 mg/kg
Mus musculus [18] = assay: Radioprotective activity in C57BL/6J mouse assessed as increase in platelet count at 100 mg/kg, sc preincubated with compound for 24 hrs followed by total body irradiation with 6.5 Gy and measured on day 10; format: functional, organism-based; conditions: time 11.0 day
Mus musculus [19] = assay: Radioprotective activity in C57BL/6J mouse assessed as increase in RBC count at 100 mg/kg, sc preincubated with compound for 24 hrs followed by total body irradiation with 6.5 Gy and measured on day 14; format: functional, organism-based; conditions: time 15.0 day
Mus musculus [20] = assay: Radioprotective activity in C57BL/6J mouse assessed as survival rate at 100 mg/kg, sc preincubated with compound for 24 hrs followed by total body irradiation with 9.5 Gy and measured after 30 days by Kaplan-meier plot analysis; format: functional; conditions: light or radiation study, 744 h, time 31 day
Mus musculus [21] = assay: Radioprotective activity in C57BL/6J mouse assessed as survival rate at 100 mg/kg, sc preincubated with compound for 24 hrs followed by total body irradiation with 8.5 Gy and measured after 20 days by Kaplan-meier plot analysis; format: functional; conditions: light or radiation study, 504 h, time 21 day
[22] = MRT (0 to t) in ICR mouse at 100 mg/kg, sc measured upto 24 hrs by LC-MS/MS analysis; format: ADME, organism-based; conditions: in vivo
[23] = Cmax in ICR mouse at 100 mg/kg, sc measured upto 24 hrs by LC-MS/MS analysis; format: ADME, organism-based; conditions: in vivo
Mus musculus [24] = assay: Radioprotective activity in C57BL/6J mouse assessed as increase in spleen coefficient at 100 mg/kg, sc preincubated with compound for 24 hrs followed by total body irradiation with 6.5 Gy and measured after 10 days; format: functional, organism-based; conditions: time 11.0 day
Mus musculus [25] = assay: Radioprotective activity in C57BL/6J mouse assessed as fold increase in total number of splenic nucleated cells at 100 mg/kg, sc preincubated with compound for 24 hrs followed by total body irradiation with 6.5 Gy and measured after 10 days; format: functional; conditions: time 11 day
Mus musculus [26] = assay: Radioprotective activity in C57BL/6J mouse assessed as increase in RBC count at 100 mg/kg, sc preincubated with compound for 24 hrs followed by total body irradiation with 6.5 Gy and measured after 30 days; format: functional, organism-based; conditions: time 31.0 day
[27] = Half life in ICR mouse at 100 mg/kg, iv measured upto 24 hrs by LC-MS/MS analysis; format: ADME, organism-based; conditions: in vivo
Mus musculus [28] = assay: Radioprotective activity in C57BL/6J mouse assessed as splenomegaly at 100 mg/kg, sc preincubated with compound for 24 hrs followed by total body irradiation with 6.5 Gy and measured after 10 days; format: functional, organism-based; conditions: time 11.0 day
Mus musculus [29] = assay: Induction of G-CSF production in C57BL/6J mouse model at 100 mg/kg, sc measured for 24 hrs by ELISA analysis; format: functional, organism-based
Mus musculus [30] = assay: Radioprotective activity in C57BL/6J mouse assessed as increase in long term hematopoietic stem cell frequency in LSK compartment at 100 mg/kg, sc preincubated with compound for 24 hrs followed by total body irradiation with 6.5 Gy and measured after 30 days; format: functional, organism-based; conditions: time 31.0 day
Mus musculus [31] = assay: Induction of G-CSF production in sc dosed C57BL/6J mouse model measured for 24 hrs by ELISA analysis; format: functional, organism-based; conditions: dose 12.5-200 mg/kg
Mus musculus [32] = assay: Radioprotective activity in C57BL/6J mouse assessed as increase in ST-HSC number at 100 mg/kg, sc preincubated with compound for 24 hrs followed by total body irradiation with 6.5 Gy and measured after 30 days; format: functional, organism-based; conditions: time 31.0 day
[33] = Volume of distribution at steady state in ICR mouse at 100 mg/kg, iv measured upto 24 hrs by LC-MS/MS analysis; format: ADME, organism-based; conditions: ICR, in vivo, read-out: Vdss
Mus musculus [34] = assay: Radioprotective activity in C57BL/6J mouse assessed as effect on LT-HSC number at 100 mg/kg, sc preincubated with compound for 24 hrs followed by total body irradiation with 6.5 Gy and measured after 30 days; format: functional, organism-based; conditions: time 31.0 day
Mus musculus [35] = assay: Radioprotective activity in C57BL/6J mouse assessed as increase in neutrophils at 100 mg/kg, sc preincubated with compound for 24 hrs followed by total body irradiation with 6.5 Gy and measured on day 7; format: functional, organism-based; conditions: time 8.0 day
Mus musculus [36] = assay: Induction of G-CSF production in C57BL/6J mouse model at 12.5 to 25 mg/kg, sc measured for 24 hrs by ELISA analysis; format: functional, organism-based; conditions: dose 12.5-25 mg/kg

CC(C)=CCC/C(C)=C/CC/C(C)=C/CC[C@]1(C)CCc2cc(O)cc(C)c2O1 [DELTA-TOCOTRIENOL]
Activity (Mus musculus [1]): Active | Tmax [2]: 4.8 min | Tmax [3]: 12 h | Activity (Mus musculus [4]): Active | Cmax [5]: 1.11 ng/mL | Activity (Mus musculus [6]): Active | MRT inf [7]: 1.63 h | Activity (Mus musculus [8]): Active | Activity (Mus musculus [9]): Active | MRT last at 24 h [10]: 1.46 h | Activity (Mus musculus [11]): Active | CL [12]: 4.4143 mL/min/kg | F [13]: 2.02% | Activity (Mus musculus [14]): Active | Activity (Mus musculus [15]): Active | Activity (Mus musculus [16]): Active | Activity (Mus musculus [17]): Active | Activity (Mus musculus [18]): Active | Activity (Mus musculus [19]): Active | survival at 100 mg/kg (Mus musculus [20]): 60% | survival at 100 mg/kg (Mus musculus [21]): 70% | MRT last at 24 h [22]: 13.9 h | Cmax [23]: 4.95 ng/mL | Activity (Mus musculus [24]): Active | fold change (FC) (Mus musculus [25]): ~2.5 | Activity (Mus musculus [26]): Active | half-life [27]: 4.43 h | Activity (Mus musculus [28]): Active | Activity (Mus musculus [29]): Active | Activity (Mus musculus [30]): Active | Activity (Mus musculus [31]): Dose-dependent-effect | Activity (Mus musculus [32]): Active | Vd [33]: 0.437 L/kg | Activity (Mus musculus [34]): inactive | Activity (Mus musculus [35]): Active | Activity (Mus musculus [36]): inactive
